Reference: PubChem BioAssay AID330 (DTP/NCI, 2004)
Several values for one entry are separate records, joined by “and”; a condition that tells them apart may be missing. Identical values can stand only once. Toxic doses and inconclusive results are not listed. Peptide text beside a SMILES is read from it.

System: P388 leukemia ip, CD2F1 mice, survival T/C
Assay: NCI In Vivo Anticancer Drug Screen. Data for tumor model P388 Leukemia (intraperitoneal) in CD2F1 (CDF1) mice
Conditions: endpoint: median survival time, higher = longer survival
In short: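 Mice carrying the transplanted tumor received test compound or vehicle. Survival was recorded in each group, and the value is the treated-group measurement divided by that of the vehicle-treated control group.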

[1] = dose: 50.0 mg/kg/injection, schedule: Q01DX009 (ip), vehicle: Klucel (hydroxypropylcellulose) (HPC)
[2] = dose: 100.0 mg/kg/injection, schedule: Q01DX009 (ip), vehicle: Klucel (hydroxypropylcellulose) (HPC)
[3] = dose: 200.0 mg/kg/injection, schedule: Q01DX009 (ip), vehicle: Klucel (hydroxypropylcellulose) (HPC)
[4] = dose: 50.0 mg/kg/injection, schedule: Q01DX009 (ip), vehicle: saline
[5] = dose: 100.0 mg/kg/injection, schedule: Q01DX009 (ip), vehicle: saline
[6] = dose: 50.0 mg/kg/injection, schedule: Q01DX005 (ip), vehicle: Klucel (hydroxypropylcellulose) (HPC)
[7] = dose: 100.0 mg/kg/injection, schedule: Q01DX005 (ip), vehicle: Klucel (hydroxypropylcellulose) (HPC)
[8] = dose: 200.0 mg/kg/injection, schedule: Q01DX005 (ip), vehicle: Klucel (hydroxypropylcellulose) (HPC)
[9] = dose: 100.0 mg/kg/injection, schedule: Q04DX003 (ip), vehicle: saline with Tween-80
[10] = dose: 200.0 mg/kg/injection, schedule: Q04DX003 (ip), vehicle: saline with Tween-80
[11] = dose: 25.0 mg/kg/injection, schedule: Q01DX005 (ip), vehicle: Klucel (hydroxypropylcellulose) (HPC)
[12] = dose: 30.0 mg/kg/injection, schedule: Q01DX005 (ip), vehicle: Klucel (hydroxypropylcellulose) (HPC)
[13] = dose: 60.0 mg/kg/injection, schedule: Q01DX005 (ip), vehicle: Klucel (hydroxypropylcellulose) (HPC)
[14] = dose: 100.0 mg/kg/injection, schedule: Q01DX001 (ip), vehicle: saline with Tween-80
[15] = dose: 200.0 mg/kg/injection, schedule: Q01DX001 (ip), vehicle: saline with Tween-80
[16] = dose: 12.5 mg/kg/injection, schedule: Q01DX009 (ip), vehicle: water

O=C(CC1=NCCN1)c1ccccc1
T/C [1]: 100 % of control | T/C [2]: 102 % of control | T/C [3]: 108 % of control

C#CC[N+]12CN3CN(CN(C3)C1)C2
T/C (dose: 12.5 mg/kg/injection, schedule: Q01DX009 (ip), vehicle: saline): 98 % of control | T/C (dose: 25.0 mg/kg/injection, schedule: Q01DX009 (ip), vehicle: saline): 99 % of control | T/C [4]: 99 % of control | T/C [5]: 116 % of control

Cn1c(N)c(C(=O)N2CCN(c3ccccc3)CC2)c(=O)n(C)c1=O
T/C [1]: 94 % of control | T/C [2]: 97 % of control | T/C [3]: 91 % of control

O=C(O)CCCNC(=O)Cc1ccccc1
T/C (dose: 50.0 mg/kg/injection, schedule: Q01DX005 (ip), vehicle: saline): 93 % of control | T/C (dose: 100.0 mg/kg/injection, schedule: Q01DX005 (ip), vehicle: saline): 90 % of control

COc1cc(N)c2c(c1N)C(=O)c1ccccc1C2=O
T/C [6]: 98 % of control | T/C [7]: 101 % of control | T/C [8]: 97 % of control

CC(C)C1CC2CCC3C(C)(C(=O)O)CCCC3(C)C2CC1CO (configuration not stated)
T/C [9]: 100 % of control | T/C [10]: 91 % of control

CC(C)N(C(C)C)p1n(C(C)(C)C)n1C(C)(C)C
T/C (dose: 12.5 mg/kg/injection, schedule: Q01DX005 (ip), vehicle: Klucel (hydroxypropylcellulose) (HPC)): 108 % of control | T/C [11]: 117 % of control | T/C [6]: 110 % of control

CCn1c(=O)c2[nH]c(=S)[nH]c2n(C2CC2)c1=O
T/C [1]: 97 % of control | T/C [2]: 101 % of control | T/C [3]: 113 % of control

CC1CC(O)C(O)(c2ccccc2)CC1C (configuration not stated)
T/C (dose: 100.0 mg/kg/injection, schedule: Q01DX001 (ip), vehicle: Klucel (hydroxypropylcellulose) (HPC)): 104 % of control | T/C (dose: 200.0 mg/kg/injection, schedule: Q01DX001 (ip), vehicle: Klucel (hydroxypropylcellulose) (HPC)): 101 % of control | T/C (dose: 400.0 mg/kg/injection, schedule: Q01DX001 (ip), vehicle: Klucel (hydroxypropylcellulose) (HPC)): 99 % of control

CC(/C=C/c1ccc(O)cc1)=N\NC(N)=O
T/C [12]: 103 % of control | T/C [13]: 99 % of control | T/C (dose: 120.0 mg/kg/injection, schedule: Q01DX005 (ip), vehicle: Klucel (hydroxypropylcellulose) (HPC)): 104 % of control | T/C (dose: 240.0 mg/kg/injection, schedule: Q01DX005 (ip), vehicle: Klucel (hydroxypropylcellulose) (HPC)): 101 % of control

CCOC(=O)c1cc[nH]c1CC(=O)NC
T/C (dose: 25.0 mg/kg/injection, schedule: Q01DX001 (ip), vehicle: saline with Tween-80): 98 % of control and 107 % of control | T/C (dose: 50.0 mg/kg/injection, schedule: Q01DX001 (ip), vehicle: saline with Tween-80): 102 % of control and 105 % of control | T/C [14]: 103 % of control and 113 % of control | T/C [15]: 113 % of control and 116 % of control

CC(C)CC(NC(=O)C(NC(=O)C(N)C(C)O)C(C)C)C(=O)O (stereo not drawn) (H-Thr-Val-Leu-OH; configuration not given here)
T/C [6]: 95 % of control | T/C [7]: 101 % of control | T/C [8]: 104 % of control

Nc1c(/C=C/c2cc3cc(C4=NCCN4)ccc3o2)[nH]c2cc(C3=NCCN3)ccc12
T/C [6]: 245 % of control | T/C [7]: 110 % of control and 227 % of control

O=Nc1ccc(Cl)cc1C(=O)c1ccccc1
T/C [4]: 90 % of control | T/C [5]: 104 % of control | T/C (dose: 200.0 mg/kg/injection, schedule: Q01DX009 (ip), vehicle: saline): 97 % of control

CN1CCC(CO)C1 (configuration not stated)
T/C [16]: 91 % of control | T/C (dose: 25.0 mg/kg/injection, schedule: Q01DX009 (ip), vehicle: water): 91 % of control | T/C (dose: 50.0 mg/kg/injection, schedule: Q01DX009 (ip), vehicle: water): 91 % of control

CC1=C(C#N)C(=O)NC1(C)O (configuration not stated)
T/C [6]: 98 % of control and 95 % of control | T/C [7]: 100 % of control | T/C [8]: 100 % of control and 101 % of control

CCCCC(CC)CN=Cc1c(O)c(O)c(C(C)C)c2cc(C)c(-c3c(C)cc4c(C(C)C)c(O)c(O)c(C=NCC(CC)CCCC)c4c3O)c(O)c12 (configuration not stated)
T/C (dose: 50.0 mg/kg/injection, schedule: Q01DX005 (ip), vehicle: saline with Tween-80): 93 % of control | T/C (dose: 100.0 mg/kg/injection, schedule: Q01DX005 (ip), vehicle: saline with Tween-80): 88 % of control | T/C (dose: 200.0 mg/kg/injection, schedule: Q01DX005 (ip), vehicle: saline with Tween-80): 86 % of control

COc1c2occc2c(CCl)c2ccc(=O)oc12
T/C (dose: 15.0 mg/kg/injection, schedule: Q01DX005 (ip), vehicle: Klucel (hydroxypropylcellulose) (HPC)): 115 % of control | T/C [12]: 111 % of control | T/C [13]: 111 % of control and 116 % of control

C/C(=N\NC(=S)N1CCN(c2ccccn2)CC1)c1ncccn1
T/C (dose: 3.13 mg/kg/injection, schedule: Q01DX005 (ip), vehicle: saline with Tween-80): 115 % of control | T/C (dose: 6.25 mg/kg/injection, schedule: Q01DX005 (ip), vehicle: saline with Tween-80): 122 % of control and 123 % of control | T/C (dose: 12.5 mg/kg/injection, schedule: Q01DX005 (ip), vehicle: saline with Tween-80): 95 % of control

COc1cccc2c1C(=O)c1c(O)c3c(c(O)c1C2=O)C[C@@](O)(c1csc(N2CCN(C)CC2)n1)C[C@@H]3OC1CC(N)C(O)C(C)O1 (some centres not stated)
T/C (dose: 0.39 mg/kg/injection, schedule: Q01DX009 (ip), vehicle: water): 113 % of control | T/C (dose: 0.78 mg/kg/injection, schedule: Q01DX009 (ip), vehicle: water): 122 % of control | T/C (dose: 1.56 mg/kg/injection, schedule: Q01DX009 (ip), vehicle: water): 155 % of control | T/C (dose: 3.13 mg/kg/injection, schedule: Q01DX009 (ip), vehicle: water): 158 % of control | T/C [16]: 122 % of control

O=C(O)CC(=O)c1ccccc1
T/C (dose: 25.0 mg/kg/injection, schedule: Q01DX009 (ip), vehicle: saline with Tween-80): 102 % of control | T/C (dose: 50.0 mg/kg/injection, schedule: Q01DX009 (ip), vehicle: saline with Tween-80): 105 % of control | T/C (dose: 200.0 mg/kg/injection, schedule: Q01DX009 (ip), vehicle: saline with Tween-80): 89 % of control

Cc1ccc(C(=O)/C(=C/c2ccccn2)N=[N+]=[N-])cc1
T/C [14]: 110 % of control | T/C [15]: 104 % of control | T/C (dose: 400.0 mg/kg/injection, schedule: Q01DX001 (ip), vehicle: saline with Tween-80): 99 % of control

COc1cc2c(cc1O)c(O)cc1c3cc(OC)c(OC)cc3c[n+](C)c21
T/C [11]: 152 % of control | T/C [6]: 153 % of control and 160 % of control | T/C [8]: 156 % of control and 159 % of control

CC(=O)C1C(C)C(C(C)=O)N2C1SC1CCOC12C (configuration not stated)
T/C (dose: 10.0 mg/kg/injection, schedule: Q01DX001 (ip), vehicle: suspension in saline): 106 % of control | T/C (dose: 20.0 mg/kg/injection, schedule: Q01DX001 (ip), vehicle: suspension in saline): 105 % of control | T/C (dose: 40.0 mg/kg/injection, schedule: Q01DX001 (ip), vehicle: suspension in saline): 101 % of control | T/C (dose: 80.0 mg/kg/injection, schedule: Q01DX001 (ip), vehicle: suspension in saline): 102 % of control

C/C=C/C1OC(O)(C(C)C(O)C(C)C2OC(=O)/C(OC)=C/C(C)=C/C(C)C(O)C(CC)C(O)C(C)C/C(C)=C/C=C/C2OC)CC(OC(=O)/C=C/C(=O)NC2=C(O)CCC2=O)C1C (configuration not stated)
T/C (dose: 0.75 mg/kg/injection, schedule: Q01DX005 (ip), vehicle: Klucel (hydroxypropylcellulose) (HPC)): 118 % of control | T/C (dose: 1.5 mg/kg/injection, schedule: Q01DX005 (ip), vehicle: Klucel (hydroxypropylcellulose) (HPC)): 110 % of control | T/C (dose: 3.0 mg/kg/injection, schedule: Q01DX005 (ip), vehicle: Klucel (hydroxypropylcellulose) (HPC)): 108 % of control | T/C (dose: 6.0 mg/kg/injection, schedule: Q01DX005 (ip), vehicle: Klucel (hydroxypropylcellulose) (HPC)): 110 % of control

N=C(N)c1ccc(Oc2ccc(Oc3ccc(C(=N)N)cc3)cc2)cc1
T/C (dose: 3.13 mg/kg/injection, schedule: Q01DX009 (ip), vehicle: saline with Tween-80): 109 % of control | T/C (dose: 3.13 mg/kg/injection, schedule: Q01DX009 (ip), vehicle: saline): 102 % of control | T/C (dose: 6.25 mg/kg/injection, schedule: Q01DX009 (ip), vehicle: saline with Tween-80): 109 % of control | T/C (dose: 6.25 mg/kg/injection, schedule: Q01DX009 (ip), vehicle: saline): 113 % of control | T/C (dose: 12.5 mg/kg/injection, schedule: Q01DX009 (ip), vehicle: saline with Tween-80): 124 % of control

CCCN(CCC)CCC(=O)OCC
T/C [9]: 118 % of control | T/C [10]: 100 % of control | T/C (dose: 400.0 mg/kg/injection, schedule: Q04DX003 (ip), vehicle: saline with Tween-80): 100 % of control
